Experimental data reported in US6716428B1, “Antigenic modification of polypeptides” (The Ohio State University Research Foundation, priority 1999, dated 2004).
Like-named read-outs stand apart in the source and are kept apart here. Square brackets hold non-standard residues; d marks the D form. Ends that are not written are not given here. Nle = CCCC[C@H](N)C(=O)O

Experiments:
HCG = assay: Antibodies bound to HCG raised by conjugated 38-57 loop analogs and reference conjugates (Example XLIV); assay type: in vivo, human; settings: for antibodies bound to HCG: mean peak binding of the antisera
Procedure: (§1) In an effort to obtain improved results over the analogs described in my earlier Example XLIII, further synthetic analogs of the unsubstituted 38-57 amino acid sequence of βHCG were prepared and evaluated in a similar manner as set forth in the prior examples. These analogs were provided with a disulfide bridge linking their 38 Cys and 57 Cys to form a loop and included the amino acid residue Ala (Pro)6 on the N-terminus as described earlier herein.
(§2) Table 33 illustrates nine analogs of the 38-57 loop peptide of βHCG with a varying number of amino acid substitutions in the positions outside the conceived 43-50 epitope sequence.
(§3) The antibodies values are expressed herein are as namomoles bound/L unless otherwise stated.

pituitary HLH = assay: Antibodies bound to pituitary HLH raised by conjugated 38-57 loop analogs and reference conjugates (Example XLIV); assay type: in vivo, human; settings: mean peak binding of the antisera
Procedure: as §1, §2, §3

female baboons [1] = system: female baboons
progesterone = settings: female baboons
female baboons [2] = assay: Fertility rates (matings and pregnancies) of immunized female baboons; assay type: in vivo, baboon; settings: for Fertility Rate (%) / No. Pregnant: female baboons
[3] = system: rabbit polyclonal antiserum to the 38-57 loop peptide; assay: Competition radioimmunoassay with rabbit polyclonal antiserum to the 38-57 loop peptide; assay type: binding
Procedure: In the preceding examples, the studied available smallest peptide highly reactive to H-18 MAB was the 40-52 residue peptide and therefore, it was contemplated that the entire epitope resided within this sequence. By the procedures described in earlier examples for other peptides, peptides representing 50-52, 49-52, 48-52, 47-52, 46-52, 45-52, 44-52, 43-52, 42-52, and 41-52 were prepared and tested for reactivity with H-18 MAB and a rabbit polyclonal antiserum to the 38-57 loop peptide.
By earlier described procedures for other peptide preparations, peptides 43-45, 43-46, 43-48, 43-49, 43-50, and 43-51 were prepared to define the C-terminal boundary of the H-18 MAB epitope and to determine whether polyclonal antisera to the 38-57 loop reacted to sequences beyond the H-18 boundary. […] This latter immunogenicity could involve N-terminal residues 41 and 42 and the C-terminal residue 51.
Peptides with amino acid substitutions in the 43-50 sequence were unreactive.

[4] = post-immunization menstrual cycle 1
[5] = post-immunization menstrual cycle 2
[6] = post-immunization menstrual cycle 3
[7] = post-immunization menstrual cycle 4
[8] = post-immunization menstrual cycle 5
[9] = pre-immunization menstrual cycle −1
[10] = pre-immunization menstrual cycle −2
[11] = pre-immunization menstrual cycle −3

## conjugate including the βHCG 109-145 amino acid sequence: conjugate of the βHCG 109-145 sequence tested in Example XLIV (TCDDPRFQDSSSSKAPPPSLPSPSRLPGPSDTPILPQ; also: conjugated to carrier; UniProt P0DN86 129-165, looked up, fragment)
HCG
  antibodies bound to HCG: 1240 nanomoles bound/L
Pituitary HLH
  antibodies bound to pituitary HLH: 0 nanomoles bound/L

## diphtheria toxoid
Female baboons [1]; [4]
  Cycle Length (days), Mean: 32.7 days
Female baboons [1]; [5]
  Cycle Length (days), Mean: 33.1 days
Female baboons [1]; [6]
  Cycle Length (days), Mean: 34.0 days
Female baboons [1]; [7]
  Cycle Length (days), Mean: 30.0 days
Female baboons [1]; [8]
  Cycle Length (days), Mean: 31.0 days
Female baboons [1]; [9]
  Cycle Length (days), Mean: 33.2 days
Female baboons [1]; [10]
  Cycle Length (days), Mean: 33.5 days
Female baboons [1]; [11]
  Cycle Length (days), Mean: 34.4 days
progesterone; [4]
  Luteal phase Progesterone (ng/ml), Mean: 4.3 ng/mL
progesterone; [5]
  Luteal phase Progesterone (ng/ml), Mean: 6.0 ng/mL
progesterone; [6]
  Luteal phase Progesterone (ng/ml), Mean: 7.0 ng/mL
progesterone; [7]
  Luteal phase Progesterone (ng/ml), Mean: 5.9 ng/mL
progesterone; [8]
  Luteal phase Progesterone (ng/ml), Mean: 6.0 ng/mL
progesterone; [9]
  Luteal phase Progesterone (ng/ml), Mean: 6.0 ng/mL
progesterone; [10]
  Luteal phase Progesterone (ng/ml), Mean: 6.8 ng/mL
progesterone; [11]
  Luteal phase Progesterone (ng/ml), Mean: 6.9 ng/mL
Female baboons [2]; Example XXXV, all matings of three mating cycles, CGP 11637, Squalene/Arlacel A
  Fertility Rate: 70%
Female baboons [2]; mating cycle 1
  Fertility Rate (%): 73.3%
  No. Pregnant: 11
Female baboons [2]; mating cycle 2
  Fertility Rate (%): 75.0%
  No. Pregnant: 3
Female baboons [2]; mating cycle 3
  Fertility Rate (%): 0%
  No. Pregnant: 0
Female baboons [2]; totals of mating cycles 1-3
  Fertility Rate (%): 70.0%
  No. Pregnant: 14
Female baboons [2]; in vivo
  pregnancies in total: 14

## CPTMTRVLQGVLPALPQVVC (cysteine pairing not given here) [Structure (XXVII)]
[3]
  antibodies against the peptide not directed to the 43-50 region: about 5%

## CPT[Nle]DRVLQGVLPAVPQVVC (cysteine pairing not given here) [analog number 2]
HCG; in vivo
  HCG antibodies bound, of those using the conjugated unsubstituted 38-57 loop sequence: about 75%
HCG
  antibodies bound to HCG: 420 nanomoles bound/L
Pituitary HLH
  antibodies bound to pituitary HLH: 13 nanomoles bound/L
